Here are results for 1 substance from patent US8846873B2, “Antibodies directed to GPNMB and uses thereof” (Celldex Therapeutics, Inc., priority 2004, dated 2014).

The subject of data set [1] is SK-MEL-5 melanoma xenografts. The experiment in a line: Human SK-MEL-5 melanoma xenograft in athymic mice. It is filed as in vivo. The protocol:
Test Animals: Five- to 6-week old athymic mice (CD-1 nu/nu females), used for human tumor xenografts, were obtained from Harlan Laboratories (Indianapolis, Ind.). Animals were housed in specific pathogen-free conditions, according to the guidelines of the Association for Assessment and Accreditation of Laboratory Animal Care International (AAALAC International). Test animals were provided pelleted food and water ad libitum and kept in a room with conditioned ventilation (HVAC), temperature (22°±2° C.), relative humidity (55%±15%), and photoperiod (12 hr). All studies were carried out with approved institutional animal care and use protocols.
Human Melanoma Xenograft Models. The tumor inhibitory activity of the CR011-MMAE immunoconjugate was measured in an anti-tumor xenograft model using athymic mice, according to published methods (see Geran et al., Cancer Chemother. Rep. 3:1-104 (1972)). […] When tumors became established (10-20 days), the animals were pair-matched into groups (n=6 mice/group), and treatment was administered by intravenous injection (tail vein).
The SK-MEL-2 human melanoma (ATCC #HTB-68) was derived from a metastatic site (skin of thigh) of a person with malignant melanoma, and the SK-MEL-5 human melanoma (ATCC #HTB-70) was derived from a metastatic site (axillary lymph node) of a person with malignant melanoma (see Fogh et al., J. Natl. Cancer Inst. 59: 221-226 (1977)). Both cell lines were obtained from the American Type Culture Collection.
The effects of treatment were monitored by repetitive tumor measurements across 2 diameters with Vernier calipers; tumor size (in mg) was calculated using a standard formula, (W^2×L)/2, assuming a specific gravity of 1.0. Tumor size and body weights were assessed twice weekly. Mice were examined daily, however, and moribund animals were humanely euthanized if clinical indications of excessive pain or distress were noted (i.e., prostration, hunched posture, paralysis/paresis, distended abdomen, ulcerations, abscesses, seizures, and/or hemorrhages). Animals with tumors exceeding 2,000 mg were removed from the study and euthanized humanely.
Soon after the commencement of treatment with paclitaxel, however, significant tumor growth inhibition was observed (P≦0.039) at day 3 after treatment began, and this anti-tumor effect continued, producing 100% growth inhibition (stasis). The responses of SK-MEL-5-bearing test animals to vinblastine and paclitaxel were short-lived. After cessation of treatment at the maximally tolerated doses, tumors resumed rapid, progressive growth.

Another data set has as its system SUP-M2 (ALCL). The data set can be described thus: Clonogenic assay with 1.15.1-AE (methylcellulose). It counts as cell-based. On the procedure:
(§1) Lymphoma or leukemia cell lines were mixed with methylcellulose base media (R&D Systems, USA) and in various concentrations of unconjugated and Auristatin E-conjugated 1.15.1 antibody before plating onto 6-well tissue culture plates (Becton Dickinson, Franklin Lakes, N.J., USA). […] Plates were incubated at 37° C. and examined daily. On days 14-18, colonies on the plates were counted.

Data set [2] concerns CCRF-CEM (acute T cell lymphoblastic leukemia). The data set can be described thus: Clonogenic assay with 1.15.1-AE (methylcellulose). It counts as cell-based. On the procedure: as §1
For data set [3], the system named is U937 (histiocytic lymphoma, monocytic). The experiment in a line: Clonogenic assay with 1.15.1-AE (methylcellulose). It counts as cell-based. The protocol:
as §1

For data set [4], the system named is Jurkat (acute T-cell leukemia). The experiment in a line: Clonogenic assay with 1.15.1-AE (methylcellulose). It is filed as cell-based. The protocol: as §1
Data set [5] concerns PL-21 (acute myeloid leukemia). The data set can be described thus: Clonogenic assay with 1.15.1-AE (methylcellulose). It is filed as cell-based. The protocol:
as §1

Another data set deals with Karpas 299 (ALCL). The data set can be described thus: Clonogenic assay with 1.15.1-AE (methylcellulose). It counts as cell-based. On the procedure:
as §1

The subject of data set [6] is SR (anaplastic large T cell lymphoma, ALCL). The experiment in a line: Clonogenic assay with 1.15.1-AE (methylcellulose). It is filed as cell-based. The protocol: as §1
For the next data set, the system named is DEL (ALCL). The data set can be described thus: Clonogenic assay with 1.15.1-AE (methylcellulose). It is filed as cell-based. The protocol: as §1
Another data set concerns SU-DHL-1 (ALCL). The data set can be described thus: Clonogenic assay with 1.15.1-AE (methylcellulose). It is filed as cell-based. On the procedure: as §1
The test system of data set [7] is THP-1 (acute monocytic leukemia). The experiment in a line: Clonogenic assay with 1.15.1-AE (methylcellulose). It counts as cell-based. The protocol: as §1
In data set [8] the test system is MOLT-4 (acute T cell lymphoblastic leukemia). The data set can be described thus: Clonogenic assay with 1.15.1-AE (methylcellulose). It counts as cell-based. On the procedure: as §1

“CR011-vcMMAE: anti-GPNMB antibody 1.15.1 coupled to monomethylauristatin E via protease-sensitive valine-citrulline linker”: in [1] (2.5 mg/kg/treatment), the complete regressions result is on record as “Complete regressions occurred”. In addition, in data set [1] (10 mg/kg/treatment, compared to PBS-treated controls), the “time after treatment began to significant anti-tumor effects” value was 10 days. Besides, the “time after treatments began to significant anti-tumor effects” value in data set [1] (10 mg/kg/treatment, compared to saline) is 7 days. In addition, the anti-tumor effect result in data set [1] (CR011-ONC-3, i.v., vs saline and PBS control groups) is “Substantial tumor growth inhibition, as well as tumor growth delay and complete regressions”. In [1] (i.v., q4d x4), the “doses at which complete regressions occurred” value is reported as over 2.5 mg/kg. The “toxicity (mortality, body weight or weight gain)” value in data set [1] (treated tumor-bearing animals) was “no indication of toxicity”. Besides, the “Clonogenic Assay with 1.15.1-AE IC50” value is “No growth” in the data set with SUP-M2 (ALCL); “No growth” in data set [2]; 0.34 µg/mL in data set [3]; “No effect” in data set [4]; “No effect” in data set [5]; “Inconclusive” in the data set with Karpas 299 (ALCL). Besides, the “Clonogenic Assay with 1.15.1-AE IC50” value in [6] is 0.296 µg/mL; in the data set on DEL (ALCL) it was “No effect”; in the data set with SU-DHL-1 (ALCL), “No effect”; in [7], 0.207 µg/mL; in data set [8], “No effect”. The IC50 is 2.4 nM in data set [3], 2 nM in data set [6] and 1.4 nM in [7].
